Laboratory results from US7608615B2, “Pyrrolo[2,1-C][1,4]benzodiazepine hybrids and a process for the preparation thereof” (Council of Scientific & Industrial Research, priority 2006, dated 2009).

Tests used:
Assay type in all cases: cell-based, human
PC3 = assay: in vitro cytotoxicity, PC3 prostate cancer cells; settings: for percentage cell growth (Activity status in terms of IC50 values) PC3 Prostate: 48 h continuous drug exposure, percent of cell growth relative to untreated control cells; for suppress PC3 cell growth: suppression of cell growth, 48 h exposure
Procedure: (§1) Cytotoxicity: The compounds 7-methoxy-8-[3-(6-chloro-2-oxo-4-phenyl-1,2-dihydro-1-quinazolinyl)propoxy]-(11aS)-1,2,3,11a-tetrahydro-5H-pyrrolo[2,1-c][1,4]benzodiazepine-5-one and 7-methoxy-8-[5-(6-chloro-2-oxo-4-phenyl-1,2-dihydro-1-quinazolinyl)pentyloxy]-(11aS)-1,2,3,11a-tetrahydro-5H-pyrrolo [2,1-c][1,4]benzodiazepine-5-one were evaluated for in vitro anticancer activity against nine human tumour cells derived from six cancer types (colon, prostate, oral, lung, cervix and breast cancer) as shown in (Table 1).
(§2) Compounds 5d and 5f have been evaluated for their in vitro cytotoxicity in selected human cancer cell lines of colon (Colo205), lung (Hop-62), cervix (SiHa), prostate (DU145, PC3), oral (DWD, HT1080), and breast (MCF7, Zr-75-1) origin. A protocol of 48 h continuous drug exposure and an […] protein assay has been used to estimate cell viability or growth. The results are expressed as percent of cell growth determined relative to that of untreated control cells (Table 1).

HT1080 = assay: in vitro cytotoxicity, HT1080 oral cancer cells; settings: for percentage cell growth (Activity status in terms of IC50 values) HT1080 Oral: 48 h continuous drug exposure, percent of cell growth relative to untreated control cells; for suppress HT1080 cell growth: suppression of cell growth, 48 h exposure
Procedure: as §1, §2

Colo205 = assay: in vitro cytotoxicity, Colo205 colon cancer cells; settings: for percentage cell growth (Activity status in terms of IC50 values) Colo205 Colon: 48 h continuous drug exposure, percent of cell growth relative to untreated control cells; for suppress Colo205 cell growth: suppression of cell growth, 48 h exposure
Procedure: as §1, §2

SiHa = assay: in vitro cytotoxicity, SiHa cervix cancer cells; settings: for percentage cell growth (Activity status in terms of IC50 values) SiHa Cervix: 48 h continuous drug exposure, percent of cell growth relative to untreated control cells; for suppressing the SiHa cell growth: suppression of cell growth, 48 h exposure
Procedure: as §1, §2

DU145 = assay: in vitro cytotoxicity, DU145 prostate cancer cells; settings: for percentage cell growth (Activity status in terms of IC50 values) DU145 Prostate: 48 h continuous drug exposure, percent of cell growth relative to untreated control cells; for suppress DU145 cell growth: suppression of cell growth, 48 h exposure
Procedure: as §1, §2

Zr-75-1 = assay: in vitro cytotoxicity, Zr-75-1 breast cancer cells; settings: for percentage cell growth (Activity status in terms of IC50 values) Zr-75-1 Breast: 48 h continuous drug exposure, percent of cell growth relative to untreated control cells; for suppressing Zr-25-1 cell growth: suppression of cell growth, 48 h exposure
Procedure: as §1, §2

MCF7 = assay: in vitro cytotoxicity, MCF7 breast cancer cells; settings: for percentage cell growth (Activity status in terms of IC50 values) MCF7 Breast: 48 h continuous drug exposure, percent of cell growth relative to untreated control cells; for suppress MCF7 cell growth: suppression of cell growth, 48 h exposure
Procedure: as §1, §2

DWD = assay: in vitro cytotoxicity, DWD oral cancer cells; settings: for percentage cell growth (Activity status in terms of IC50 values) DWD Oral: 48 h continuous drug exposure, percent of cell growth relative to untreated control cells; for suppress DWD cell growth: suppression of cell growth, 48 h exposure
Procedure: as §1, §2

Hop62 = assay: in vitro cytotoxicity, Hop62 lung cancer cells; settings: for percentage cell growth (Activity status in terms of IC50 values) Hop62 Lung: 48 h continuous drug exposure, percent of cell growth relative to untreated control cells; for suppress Hop62 cell growth: suppression of cell growth, 48 h exposure
Procedure: as §1, §2

Compound | percentage cell growth (Activity status in terms of IC50 values) PC3 Prostate (PC3) [%] | percentage cell growth (Activity status in terms of IC50 values) HT1080 Oral (HT1080) [%] | percentage cell growth (Activity status in terms of IC50 values) Colo205 Colon (Colo205) [%] | percentage cell growth (Activity status in terms of IC50 values) SiHa Cervix (SiHa) [%] | percentage cell growth (Activity status in terms of IC50 values) DU145 Prostate (DU145) [%] | percentage cell growth (Activity status in terms of IC50 values) Zr-75-1 Breast (Zr-75-1) [%] | percentage cell growth (Activity status in terms of IC50 values) MCF7 Breast (MCF7) [%] | percentage cell growth (Activity status in terms of IC50 values) DWD Oral (DWD) [%] | percentage cell growth (Activity status in terms of IC50 values) Hop62 Lung (Hop62) [%] | suppress PC3 cell growth (PC3) [%] | suppress HT1080 cell growth (HT1080) [%] | suppress Colo205 cell growth (Colo205) [%] | suppressing the SiHa cell growth (SiHa) [%] | suppress DU145 cell growth (DU145) [%] | suppressing Zr-25-1 cell growth (Zr-75-1) [%] | suppress MCF7 cell growth (MCF7) [%] | suppress DWD cell growth (DWD) [%] | suppress Hop62 cell growth (Hop62) [%]
COc1cccc2c1C(=O)c1c(O)c3c(c(O)c1C2=O)C[C@@](O)(C(=O)CO)C[C@@H]3O[C@H]1C[C@H](N)[C@H](O)[C@H](C)O1 [ADR, adriamycin, reference compound] | 5 | 4 | 5 | 5 | 6 | 5 | 5 | 2 | 5 |  |  |  |  |  |  |  |  | 
COc1cc2c(cc1OCCCn1c(=O)nc(-c3ccccc3)c3cc(Cl)ccc31)N=C[C@@H]1CCCN1C2=O [Compound 5d, 7-Methoxy-8-[3-(6-chloro-2-oxo-4-phenyl-1,2-dihydro-1-quinazolinyl)propoxy]-(11aS)-1,2,3,11a-tetrahydro-5H-pyrrolo[2,1-c][1,4]benzodiazepine-5-one] | 11 | 9 | 8 | 16 | 8 | 8 | 12 | 5 | 6 | 89 | 91 | 92 | 84 | 92 | 92 | 88 | 95 | 94
COc1cc2c(cc1OCCCCCn1c(=O)nc(-c3ccccc3)c3cc(Cl)ccc31)N=C[C@@H]1CCCN1C2=O [Compound 5f, 7-Methoxy-8-[5-(6-chloro-2-oxo-4-phenyl-1,2-dihydro-1-quinazolinyl)pentyloxy]-(11aS)-1,2,3,11a-tetrahydro-5H-pyrrolo[2,1-c][1,4]benzodiazepine-5-one] | 7 | 8 | 15 | 16 | 10 | 8 | 8 | 5 | 5 | 93 | 92 | 85 | 84 | 90 | 92 | 92 | 95 | 95
